Consider 28 molecules from patent US10654818B2, “Furane derivatives as inhibitors of ATAD2” (BAYER PHARMA AKTIENGESELLSCHAFT, priority 2015, dated 2020).

Each structure is given as a SMILES string.

The assay concerns the target T1, recombinant, N-terminally GST-tagged ATAD2 bromodomain amino acids 981-1108 (Homo sapiens, UniProt Q6PL18).
T1 construct: ATAD2 bromodomain amino acids 981-1108; made in house; host or cells: E. coli
T1 sequence (Q6PL18 981-1108): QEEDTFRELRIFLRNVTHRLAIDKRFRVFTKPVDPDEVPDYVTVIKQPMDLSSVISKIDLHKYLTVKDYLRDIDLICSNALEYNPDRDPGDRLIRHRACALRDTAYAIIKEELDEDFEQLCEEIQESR
The experiment in a line: TR-FRET assay: disruption of the interaction between ATAD2 and acetylated Histone H4 (Ac-H4) peptide. Format: binding. The following applies: inhibition of ATAD2/Ac-H4 complex formation; 10 nM ATAD2, 50 nM Ac-H4 peptide. In short, it runs like this: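 10 nM protein (final) pre-incubated 10 min at 22 °C with compound (0.1 nM-20 μM, 11 points, duplicate), then 50 nM biotinylated Ac-H4 peptide plus anti-GST-XL665/streptavidin-Eu added for 1 h at 22 °C in HEPES pH 7.5 buffer. 665/622 nm emission ratio read; IC50 from 4-parameter fit of normalized inhibition.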
For `Cc1ccc([C@@H](C)NCc2ccc(-c3ccc(Cl)c(C(=O)N[C@@H](CCN[C@H]4CCN(C)C4)Cc4ccc(C#N)cc4)c3)o2)cc1` [Example 35, 2-chloro-N-[(2R)-1-(4-cyanophenyl)-4-{[(3S)-1-methylpyrrolidin-3-yl]amino}butan-2-yl]-5-[5-({[(1R)-1-(4-methylphenyl)ethyl]amino}methyl)-2-furyl]benzamide], the IC50 (usually the concentration that inhibits the measured activity by half) came out at 0.466 µM.

For `CC(C)(NCc1ccc(-c2ccc(Cl)c(C(=O)N[C@@H](CN)Cc3ccc(C#N)cc3)c2)o1)c1ccc(C(F)(F)F)cc1` [Example 74, N-[(2R)-1-amino-3-(4-cyanophenyl)propan-2-yl]-2-chloro-5-{5-[({2-[4-(trifluoro-methyl)phenyl]propan-2-yl}amino)methyl]-2-furyl}benzamide], the IC50 was 0.671 µM. For `Cc1ccc([C@@H](C)NCc2ccc(-c3ccc(Cl)c(C(=O)N[C@@H](CNC4CCNCC4F)Cc4ccc(C#N)cc4)c3)o2)cc1` (stereo partly shown) [Example 73] the value was 0.132 µM.

In the case of `Cc1ccc([C@@H](C)NCc2ccc(-c3ccc(Cl)c(C(=O)N[C@@H](CNCCO)Cc4ccc(C#N)cc4)c3)o2)cc1` [Example 23, 2-chloro-N-{(2R)-1-(4-cyanophenyl)-3-[(2-hydroxyethyl)amino]propan-2-yl}-5-[5-({[(1R)-1-(4-methylphenyl)ethyl]amino}methyl)-2-furyl]benzamide], the IC50 amounted to 0.561 µM. Next, `Cc1ccc([C@@H](C)NCc2ccc(-c3ccc(Cl)c(C(=O)N[C@@H](CC(=O)NCCCO)Cc4ccc(C#N)cc4)c3)o2)cc1` [Example 8, 2-chloro-N-{(2R)-1-(4-cyanophenyl)-4-[(3-hydroxypropyl)amino]-4-oxobutan-2-yl}-5-[5-({[(1R)-1-(4-methylphenyl)ethyl]amino}methyl)-2-furyl]benzamide]: 0.898 µM; `Cc1ccc([C@@H](C)NCc2ccc(-c3ccc(Cl)c(C(=O)N[C@@H](CNC(=O)C4CCNCC4)Cc4ccc(C#N)cc4)c3)o2)cc1` [Example 56, N-[(2R)-2-({2-chloro-5-[5-({[(1R)-1-(4-methylphenyl)ethyl]amino}methyl)-2-furyl]benzoyl}amino)-3-(4-cyanophenyl)propyl]piperidine-4-carboxamide]: 0.51 µM; `Cc1ccc([C@@H](C)NCc2ccc(-c3ccc(Cl)c(C(=O)N[C@@H](CC(=O)NC(C)C)Cc4ccc(C#N)cc4)c3)o2)cc1` [Example 6, 2-chloro-N-[(2R)-1-(4-cyanophenyl)-4-(isopropylamino)-4-oxobutan-2-yl]-5-[5-({[(1R)-1-(4-methylphenyl)ethyl]amino}methyl)-2-furyl]benzamide]: 0.656 µM. Next, `Cc1ccc([C@@H](C)NCc2ccc(-c3ccc(Cl)c(C(=O)N[C@@H](CNC4CCN(CC(C)C)CC4)Cc4ccc(C#N)cc4)c3)o2)cc1` [Example 63]: 0.32 µM; `CC(=O)NC[C@@H](Cc1ccc(C#N)cc1)NC(=O)c1cc(-c2ccc(CN[C@H](C)c3ccc(C)cc3)o2)ccc1Cl` [Example 43, N-[(2R)-1-acetamido-3-(4-cyanophenyl)propan-2-yl]-2-chloro-5-[5-({[(1R)-1-(4-methylphenyl)ethyl]amino}methyl)-2-furyl]benzamide]: 1.71 µM. For `Cc1ccc([C@@H](C)NCc2ccc(-c3ccc(Cl)c(C(=O)N[C@@H](CCN4CCN[C@@H](C)C4)Cc4ccc(C#N)cc4)c3)o2)cc1` [Example 28, 2-chloro-N-{(2R)-1-(4-cyanophenyl)-4-[(3S)-3-methylpiperazin-1-yl]butan-2-yl}-5-[5-({[(1R)-1-(4-methylphenyl)ethyl]amino}methyl)-2-furyl]benzamide] the value was 0.148 µM; for `Cc1ccc([C@@H](C)NCc2ccc(-c3ccc(Cl)c(C(=O)N[C@@H](CNC4CCN(Cc5ccccc5)CC4)Cc4ccc(C#N)cc4)c3)o2)cc1` [Example 59], 0.625 µM.

Regarding `Cc1ccc([C@@H](C)NCc2ccc(-c3ccc(Cl)c(C(=O)N[C@@H](CO)Cc4ccncc4)c3)o2)cc1` [Example 47, 2-chloro-N-[(2R)-1-hydroxy-3-(pyridin-4-yl)propan-2-yl]-5-[5-({[(1R)-1-(4-methylphenyl)ethyl]amino}methyl)-2-furyl]benzamide], the IC50 came out at 2.1 µM. Regarding `Cc1ccc([C@@H](C)NCc2ccc(-c3ccc(Cl)c(C(=O)N[C@@H](CO)Cc4cccc(C#N)c4)c3)o2)cc1` [Example 44, 2-chloro-N-[(2R)-1-(3-cyanophenyl)-3-hydroxypropan-2-yl]-5-[5-({[(1R)-1-(4-methylphenyl)ethyl]amino}methyl)-2-furyl]benzamide], the IC50 was 1.6 µM.

For the molecule `Cc1ccc([C@@H](C)NCc2ccc(-c3ccc(Cl)c(C(=O)N[C@@H](CNC4CCNCC4)Cc4ccc(C#N)cc4)c3)o2)cc1` [Example 67], the 50% inhibitory concentration (IC50) was determined as 0.265 µM. Next, `COC(=O)[C@@H](Cc1ccc(C#N)cc1)NC(=O)c1cc(-c2ccc(CN[C@H](C)c3ccc(C)cc3)o2)ccc1Cl` [Example 15, methyl N-{2-chloro-5-[5-({[(1R)-1-(4-methylphenyl)ethyl]amino}methyl)-2-furyl]benzoyl}-4-cyano-D-phenylalaninate]: 0.812 µM; `Cc1ccc([C@@H](C)NCc2ccc(-c3ccc(Cl)c(C(=O)N[C@@H](CN[C@H]4CC[C@@H](N)CC4)Cc4ccc(C#N)cc4)c3)o2)cc1` (single isomer, unassigned) [Example 72]: 0.138 µM.

As to `Cc1ccc([C@@H](C)NCc2ccc(-c3ccc(Cl)c(C(=O)N[C@H](Cc4ccc(C#N)cc4)[C@H](O)CC(C)C)c3)o2)cc1` [Example 45, 2-chloro-N-[(2R,3R)-1-(4-cyanophenyl)-3-hydroxy-5-methylhexan-2-yl]-5-[5-({[(1R)-1-(4-methylphenyl)ethyl]amino}methyl)-2-furyl]benzamide], the IC50 was 1.8 µM. Next, `Cc1ccc([C@@H](C)NCc2ccc(-c3ccc(Cl)c(C(=O)N[C@H](Cc4ccc(C#N)cc4)CN4CCN(C)CC4)c3)o2)cc1` [Example 21, 2-chloro-N-[(2R)-1-(4-cyanophenyl)-3-(4-methylpiperazin-1-yl)propan-2-yl]-5-[5-({[(1R)-1-(4-methylphenyl)ethyl]amino}methyl)-2-furyl]benzamide]: 0.58 µM; `Cc1ccc([C@@H](C)NCc2ccc(-c3ccc(Cl)c(C(=O)N[C@H](Cc4ccc(C#N)cc4)CN4CCOCC4)c3)o2)cc1` [Example 22, 2-chloro-N-[(2R)-1-(4-cyanophenyl)-3-(morpholin-4-yl)propan-2-yl]-5-[5-({[(1R)-1-(4-methylphenyl)ethyl]amino}methyl)-2-furyl]benzamide]: 0.854 µM; `Cc1ccc([C@@H](C)NCc2ccc(-c3ccc(Cl)c(C(=O)N[C@@H](CNC4CCN(C)CC4)Cc4ccc(C#N)cc4)c3)o2)cc1` [Example 58, 2-chloro-N-{(2R)-1-(4-cyanophenyl)-3-[(1-methylpiperidin-4-yl)amino]propan-2-yl}-5-[5-({[(1R)-1-(4-methylphenyl)ethyl]amino}methyl)-2-furyl]benzamide]: 0.172 µM. For `CCN1CCC(NC[C@@H](Cc2ccc(C#N)cc2)NC(=O)c2cc(-c3ccc(CN[C@H](C)c4ccc(C)cc4)o3)ccc2Cl)CC1` [Example 62] the value was 0.332 µM; for `CC(C)(NCc1ccc(-c2ccc(Cl)c(C(=O)NC(Cc3ccc(C#N)cc3)C(N)=O)c2)o1)c1ccc(Cl)cc1` (stereo not shown) [Example 95], 2.82 µM. Next, `Cc1ccc([C@@H](C)NCc2ccc(-c3ccc(Cl)c(C(=O)N[C@@H](CO)Cc4ccc(I)cc4)c3)o2)cc1` [Example 18, 2-chloro-N-[(2R)-1-hydroxy-3-(4-iodophenyl)propan-2-yl]-5-[5-({[(1R)-1-(4-methylphenyl)ethyl]amino}methyl)-2-furyl]benzamide]: 1.13 µM; `Cc1ccc([C@@H](C)NCc2ccc(-c3ccc(Cl)c(C(=O)N[C@@H](CO)Cc4ccc(C#N)c(C)c4)c3)o2)cc1` [Example 37, 2-chloro-N-[(2R)-1-(4-cyano-3-methylphenyl)-3-hydroxypropan-2-yl]-5-[5-({[(1R)-1-(4-methylphenyl)ethyl]amino}methyl)-2-furyl]benzamide]: 0.443 µM. As for `Cc1ccc([C@@H](C)NCc2ccc(-c3ccc(Cl)c(C(=O)N[C@H](Cc4ccc(C#N)cc4)[C@H](C)O)c3)o2)cc1` [Example 17, 2-chloro-N-[(2R,3S)-1-(4-cyanophenyl)-3-hydroxybutan-2-yl]-5-[5-({[(1R)-1-(4-methylphenyl)ethyl]amino}methyl)-2-furyl]benzamide], the IC50 turned out to be 0.341 µM. Next, `Cc1ccc([C@@H](C)NCc2ccc(-c3ccc(Cl)c(C(=O)N[C@@H](CCN4CCN(C)C[C@@H]4C)Cc4ccc(C#N)cc4)c3)o2)cc1` [Example 31, 2-chloro-N-{(2R)-1-(4-cyanophenyl)-4-[(2S)-2,4-dimethylpiperazin-1-yl]butan-2-yl}-5-[5-({[(1R)-1-(4-methylphenyl)ethyl]amino}methyl)-2-furyl]benzamide]: 0.297 µM; `Cc1ccc([C@@H](C)NCc2ccc(-c3ccc(Cl)c(C(=O)N[C@@H](CNC4CCN(C(=O)OC(C)(C)C)CC4)Cc4ccc(C#N)cc4)c3)o2)cc1` [Example 64]: 1.18 µM.

Consider `Cc1ccc([C@@H](C)NCc2ccc(-c3cc(F)c(Cl)c(C(=O)N[C@@H](CO)Cc4ccc(C#N)cc4)c3)o2)cc1` [Example 77, 2-chloro-N-[(2R)-1-(4-cyanophenyl)-3-hydroxypropan-2-yl]-3-fluoro-5-[5-({[(1R)-1-(4-methylphenyl)ethyl]amino}methyl)-2-furyl]benzamide], for which the IC50 was 0.598 µM.
